Experimental data as given in US9234025B2, “Extracellular allosteric inhibitor binding domain from a tyrosine kinase receptor” (SANOFI, priority 2009, dated 2016).

Key:
FGFR2^∂23-Y328D = FGFR2^∂23-Y328D (Homo sapiens, UniProt P21802, Y328D); test: ITC, FGFR2 Y328D mutant; assay type: binding; design: FGFR2^∂23 (consisting of domain D2 and 3); made in house
Method: All calorimetric experiments were performed at 30° C. with a VP-ITC titration calorimeter (MicroCal Inc., Northampton, Mass.) as previously described^45. Titrations involved the addition of 10 μL aliquots of 1.25 mM SSR via a rotating stirrer-syringe to the solution cell containing 1.407 mL of the 10-20 μM interacting protein (i.e. FGFR2^∂123, FGFR2^∂23 and its described mutants and subdomains, FGFR3^∂123, FGF1, FGF2 and Follistatin (as negative control) at 4 min intervals. A constant stirring speed of 300 rpm was maintained and data were fitted to the standard noninteracting one site model supplied by MicroCal, with n fixed as 1.0. All measurements were performed in 10 mM HEPES pH7.2, 150 mM NaCl, and proteins were purified as previously described (Pellegrini et al., 2000). Mutagenesis was performed using the ‘site directed mutagenesis kit’ (Stratagene).
We next explored whether SSR bound to amino acid residues that form part of the orthosteric site in D3 or to an alternative allosteric site. Initially, we used the molecular docking algorithms of the software packages MOLEGRO, Autodock and YASARA and available crystallographic data. […] We also analyzed the FTIR spectrum of the aforementioned mutated FGFR2 fragments.

FGF1 = biological target: T1, FGF1 (Homo sapiens, UniProt P05230); test: ITC or STD-NMR, FGF1; assay type: binding
T1 construct: FGF1 (amino acids: 16-155); made in house
Method: The extracellular domain (ECD; amino acids: 39-358) of the human FGFR1 gene (P11362) was PCR amplified and cloned into E. coli vector pETTEV (with a N-terminal His-tag followed by a TEV protease cleavage site), using NdeI and BamHI restriction sites. For protein production, the resulting plasmid (pET FGFR1 D1D2D3) was transformed into E. coli BL21(DE3) (Novagene). Cells were grown at 37° C. until the OD600 reached 0.6 and recombinant protein production was induced by adding 1 mM IPTG (isopropyl-b-D-thiogalactopyranoside). After 4 hours induction, cells were harvested and stored at −80° C. until usage. The cell pellet (1 L culture) was thawed and resuspended in 50 ml buffer 1 (20 mM Tris/HCl, pH 7.5, 200 mM NaCl) containing lysozyme (2 mg), and 40 U benzonase (Merck). […] Complex formation was analyzed by size exclusion chromatography and subsequent analysis on SDS-PAGE.
All STD- and 1D-NMR experiments were carried out on a BRUKER three-channel DRX600 and on a BRUKER four-channel DRX800 spectrometer at the standard temperature of 298 K and were referenced to the internal standard 3-Trimethyl-2,2,3,3-tetradeuteropropionate-sodium salt (TSP). […] For protein ligand 1D STD NMR measurements spectra were recorded with 1 mM ligand SSR128129E (100 mM DMSO stock solution) and […] protein with weak 2s RF irradiation on separated protein methyl resonances. […]

HUVEC = HUVEC chemotactic migration; assay type: cell-based, human; details: FGFR1-driven
Method: Confluent HUVEC cells are harvested and resuspended in RPMI 1640 (Invitrogen, 32404-014) without FCS, 2 mM glutamine, MEM non-essential amino-acid 1× (Gibco, 11140-035), MEM sodium pyruvate 1× (Gibco, 11360-039) at 0.8 10^6 cells/ml. 250 μl of cell solution is distributed with 4×SSR in the upper chamber of 24-wells BD Biocoat Angiogenesis System for endothelial cell migration (BD Biocoat, 354144) and 750 μl of medium in the lower chamber with FGF2 (R&D, 234-FSE-025), FGF4 (R&D, 235-F4-025) or FGF-19 (in house produced) at 67 ng/ml. Plates are incubated 22 h at 37° C. in a CO2 chamber. Then, plate insert is removed, and placed in a new 24-wells plate (Falcon, 353504) that contains 500 μL of calcein (Molecular probes, C-3100) for 90 min. Then migrated cells are fluorescent and migration is measured by a […] with downstairs reading following 485 nm excitation and 535 nm emission.

Sequence of FGFR2^∂23-Y328D (P21802 148-366 Y328D limits assumed): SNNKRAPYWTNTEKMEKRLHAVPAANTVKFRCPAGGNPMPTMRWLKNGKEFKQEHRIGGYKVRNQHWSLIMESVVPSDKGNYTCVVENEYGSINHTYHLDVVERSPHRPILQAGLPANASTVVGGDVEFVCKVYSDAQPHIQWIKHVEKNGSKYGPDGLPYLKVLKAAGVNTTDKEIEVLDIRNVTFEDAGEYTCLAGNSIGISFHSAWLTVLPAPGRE
T1 sequence (P05230 16-155, species assumed): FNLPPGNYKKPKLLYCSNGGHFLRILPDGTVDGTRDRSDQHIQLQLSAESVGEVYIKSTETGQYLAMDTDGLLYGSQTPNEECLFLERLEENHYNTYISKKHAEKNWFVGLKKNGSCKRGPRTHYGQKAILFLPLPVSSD

COc1c(C)c(C(=O)c2ccc(N)c(C(=O)[O-])c2)n2ccccc12.[Na+] [SSR]
binding to FGFR2^∂23-Y328D (FGFR2^∂23-Y328D): failed to bind | binding to FGF1 (FGF1): failed to bind | FGF2-induced HUVEC chemotactic migration (HUVEC): reduction of FGF2-induced HUVEC chemotactic migration
